Assay results: patent publication US9493448B2, “Cycloalkane derivatives” (Daiichi Sankyo Company, Limited, priority 2012, dated 2016)

Key:
[1] = test system: painful diabetic neuropathy; conditions: cited from earlier work
[2] = molecular target: hNav 1.7 (Homo sapiens (Human), UniProt Q15858); test: Electrophysiological evaluation, automated patch clamp IonWorks Quattro (Population Patch Clamp mode); assay type: cell-based; conditions: HEK293A cells stably expressing hNav 1.7/β1/β2; response to second depolarization pulse, pre-pulse potential set to V1/2; read-out: hNav1.7 IC50
hNav 1.7, sequence (Q15858 whole entry): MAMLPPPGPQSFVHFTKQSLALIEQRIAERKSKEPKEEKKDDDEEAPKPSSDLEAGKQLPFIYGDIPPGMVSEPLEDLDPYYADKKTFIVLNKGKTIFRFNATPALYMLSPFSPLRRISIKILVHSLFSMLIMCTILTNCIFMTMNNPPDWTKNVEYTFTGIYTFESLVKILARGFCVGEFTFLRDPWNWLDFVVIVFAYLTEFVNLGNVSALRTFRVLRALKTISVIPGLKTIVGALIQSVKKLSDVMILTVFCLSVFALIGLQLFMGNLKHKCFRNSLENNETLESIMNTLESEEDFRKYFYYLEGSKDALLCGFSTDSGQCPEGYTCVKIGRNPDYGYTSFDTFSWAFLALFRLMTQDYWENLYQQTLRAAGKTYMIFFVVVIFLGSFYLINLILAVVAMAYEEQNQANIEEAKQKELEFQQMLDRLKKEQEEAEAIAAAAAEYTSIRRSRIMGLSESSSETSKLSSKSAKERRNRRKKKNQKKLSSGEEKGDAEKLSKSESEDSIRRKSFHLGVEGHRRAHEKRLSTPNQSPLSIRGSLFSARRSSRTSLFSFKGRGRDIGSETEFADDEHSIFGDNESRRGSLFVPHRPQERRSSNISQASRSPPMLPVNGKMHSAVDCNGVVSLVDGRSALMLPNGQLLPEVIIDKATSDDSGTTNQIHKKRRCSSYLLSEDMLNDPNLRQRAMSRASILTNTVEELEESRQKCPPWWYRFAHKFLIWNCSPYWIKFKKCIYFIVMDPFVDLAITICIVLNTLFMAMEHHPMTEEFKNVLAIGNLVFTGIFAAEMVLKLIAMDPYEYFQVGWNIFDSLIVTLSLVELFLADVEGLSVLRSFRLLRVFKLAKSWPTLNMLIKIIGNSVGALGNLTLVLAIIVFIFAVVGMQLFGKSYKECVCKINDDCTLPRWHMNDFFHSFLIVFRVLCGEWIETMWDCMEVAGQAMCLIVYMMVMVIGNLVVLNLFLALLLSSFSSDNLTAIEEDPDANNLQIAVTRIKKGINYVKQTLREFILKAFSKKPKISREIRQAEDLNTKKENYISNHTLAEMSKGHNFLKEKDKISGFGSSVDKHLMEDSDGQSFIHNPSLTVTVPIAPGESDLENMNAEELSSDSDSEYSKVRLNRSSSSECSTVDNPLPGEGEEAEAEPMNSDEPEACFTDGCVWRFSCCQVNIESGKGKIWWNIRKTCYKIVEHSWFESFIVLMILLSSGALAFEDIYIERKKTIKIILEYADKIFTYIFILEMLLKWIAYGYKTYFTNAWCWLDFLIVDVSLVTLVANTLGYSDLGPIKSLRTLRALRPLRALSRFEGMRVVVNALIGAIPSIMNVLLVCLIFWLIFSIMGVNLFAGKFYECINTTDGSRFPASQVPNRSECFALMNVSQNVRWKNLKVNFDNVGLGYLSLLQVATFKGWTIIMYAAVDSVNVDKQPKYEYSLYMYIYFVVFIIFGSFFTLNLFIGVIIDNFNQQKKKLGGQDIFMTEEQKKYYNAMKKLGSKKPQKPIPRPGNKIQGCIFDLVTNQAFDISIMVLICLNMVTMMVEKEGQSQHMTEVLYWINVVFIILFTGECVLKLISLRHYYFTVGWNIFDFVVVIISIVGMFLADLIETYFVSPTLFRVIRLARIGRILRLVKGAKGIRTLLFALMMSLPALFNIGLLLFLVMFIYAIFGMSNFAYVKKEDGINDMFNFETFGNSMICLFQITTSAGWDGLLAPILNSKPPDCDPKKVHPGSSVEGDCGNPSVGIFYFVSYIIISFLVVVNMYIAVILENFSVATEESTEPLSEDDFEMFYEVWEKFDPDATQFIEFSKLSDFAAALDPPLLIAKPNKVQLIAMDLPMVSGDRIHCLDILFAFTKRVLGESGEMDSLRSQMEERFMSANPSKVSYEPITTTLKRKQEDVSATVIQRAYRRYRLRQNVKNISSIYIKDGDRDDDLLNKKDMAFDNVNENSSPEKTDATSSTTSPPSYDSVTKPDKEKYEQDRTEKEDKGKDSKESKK
hNav 1.7, sequence (Q07699 19-218 partner): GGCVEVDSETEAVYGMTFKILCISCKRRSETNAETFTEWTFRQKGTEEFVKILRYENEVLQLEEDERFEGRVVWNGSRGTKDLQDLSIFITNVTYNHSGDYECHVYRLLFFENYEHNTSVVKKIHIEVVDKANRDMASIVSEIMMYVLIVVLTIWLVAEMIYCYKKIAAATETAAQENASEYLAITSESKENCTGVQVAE
hNav 1.7, sequence (O60939 30-215 partner): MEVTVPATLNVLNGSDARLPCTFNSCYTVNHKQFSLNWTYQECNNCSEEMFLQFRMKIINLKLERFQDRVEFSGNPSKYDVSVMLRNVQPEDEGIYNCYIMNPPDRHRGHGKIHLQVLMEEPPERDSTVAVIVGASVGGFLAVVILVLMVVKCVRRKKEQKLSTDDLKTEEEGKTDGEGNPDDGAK

[3] = test system: mice and rats affected by thermal hyperalgesia; test: Thermal hyperalgesia assay; assay type: in vivo; conditions: oral administration, constant dose, against the vehicle treatment group; latency to escape behaviors after thermal stimulation of hind paw;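 note: measurement times set by the study director and not disclosed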

## CC(C)C[C@H](CN)CC(=O)O [pregabalin]
[1]
  effective therapeutic ratio based on self-evaluation of patients: approximately 50%

## Cn1nccc1[C@H]1CCC(F)(F)C[C@@H]1Oc1ccc(S(=O)(=O)Nc2ccncn2)c(F)c1 (relative stereo) [Example 110, 4-{[(1S*,2R*)-5,5-Difluoro-2-(1-methyl-1H-pyrazol-5-yl)cyclohexyl]oxy}-2-fluoro-N-(pyrimidin-4-yl)benzenesulfonamide]
[2]
  IC50: 300 nM
[3]
  Ratio of improving pain score (%): B (“B” when the rate was 31 to 60%)

## Cc1cc(S(=O)(=O)Nc2ccncn2)ccc1O[C@H]1CCCC[C@@H]1c1ccnn1C (relative stereo) [Example 54, 3-Methyl-4-{[(1S*,2R*)-2-(1-methyl-1H-pyrazol-5-yl)cyclohexyl]oxy}-N-(pyrimidin-4-yl)benzenesulfonamide]
[2]
  IC50: 39 nM
[3]
  Ratio of improving pain score (%): C (“C” when the rate was 0 to 30%)

## O=S(=O)(Nc1ccncn1)c1c(F)cc(O[C@H]2CC(F)(F)CC[C@@H]2c2cn[nH]c2)cc1F (relative stereo) [Example 104, 4-{[(1S*,2R*)-5,5-Difluoro-2-(1H-pyrazol-4-yl)cyclohexyl]oxy}-2,6-difluoro-N-(pyrimidin-4-yl)benzenesulfonamide]
[2]
  IC50: 71 nM
[3]
  Ratio of improving pain score (%): B (“B” when the rate was 31 to 60%)

## Cn1nccc1[C@H]1CCC[C@@H]1Oc1cc(F)c(S(=O)(=O)Nc2ccnc(F)n2)c(F)c1 (relative stereo) [Example 111, 2,6-Difluoro-N-(2-fluoropyrimidin-4-yl)-4-{[(1S*,2R*)-2-(1-methyl-1H-pyrazol-5-yl)cyclopentyl]oxy}benzenesulfonamide]
[2]
  IC50: 30 nM
[3]
  Ratio of improving pain score (%): A (“A” when the rate was 61 to 100%)

## Cn1nccc1[C@H]1CCCCC[C@@H]1Oc1cc(F)c(S(=O)(=O)Nc2ccncn2)cc1Cl (relative stereo) [Example 60, 5-Chloro-2-fluoro-4-{[(1S*,2R*)-2-(1-methyl-1H-pyrazol-5-yl)cycloheptyl]oxy}-N-(pyrimidin-4-yl)benzenesulfonamide]
[2]
  IC50: 37 nM
[3]
  Ratio of improving pain score (%): C (“C” when the rate was 0 to 30%)

## Cn1nccc1[C@@H]1CCC[C@H]1Oc1ccc(S(=O)(=O)Nc2ccncn2)c(F)c1 [Example 128, 2-Fluoro-4-{[(1R,2S)-2-(1-methyl-1H-pyrazol-5-yl)cyclopentyl]oxy}-N-(pyrimidin-4-yl)benzenesulfonamide]
[2]
  IC50: 92000 nM
[3]
  Ratio of improving pain score (%): B (“B” when the rate was 31 to 60%)

## Cn1nccc1[C@H]1CCCC[C@@H]1Oc1ccc(S(=O)(=O)Nc2ccncn2)c(F)c1 (relative stereo) [Example 44, 2-Fluoro-4-{[(1S*,2R*)-2-(1-methyl-1H-pyrazol-5-yl)cyclohexyl]oxy}-N-(pyrimidin-4-yl)benzenesulfonamide]
[2]
  IC50: 330 nM
[3]
  Ratio of improving pain score (%): C (“C” when the rate was 0 to 30%)

## CCn1nccc1[C@H]1CCC[C@@H]1Oc1ccc(S(=O)(=O)Nc2ccncn2)c(F)c1 (relative stereo) [Example 115, 4-{[(1S*,2R*)-2-(1-Ethyl-1H-pyrazol-5-yl)cyclopentyl]oxy}-2-fluoro-N-(pyrimidin-4-yl)benzenesulfonamide]
[2]
  IC50: 580 nM
[3]
  Ratio of improving pain score (%): A (“A” when the rate was 61 to 100%)

## CO[C@@H]1C[C@H](Oc2cc(F)c(S(=O)(=O)Nc3ccncn3)cc2F)[C@@H](c2ccnn2C)C1 (relative stereo) [Example 120, 2,5-Difluoro-4-{[(1S*,2R*,4S*)-4-methoxy-2-(1-methyl-1H-pyrazol-5-yl)cyclopentyl]oxy}-N-(pyrimidin-4-yl)benzenesulfonamide]
[2]
  IC50: 270 nM
[3]
  Ratio of improving pain score (%): C (“C” when the rate was 0 to 30%)

## Cc1cc(S(=O)(=O)Nc2ccncn2)c(F)cc1O[C@H]1CC(F)(F)CC[C@@H]1c1ccnn1C [Example 137, 4-{[(1S,2R)-5,5-Difluoro-2-(1-methyl-1H-pyrazol-5-yl)cyclohexyl]oxy}-2-fluoro-5-methyl-N-(pyrimidin-4-yl)benzenesulfonamide]
[2]
  IC50: 30 nM
[3]
  Ratio of improving pain score (%): A (“A” when the rate was 61 to 100%)

## O=S(=O)(Nc1ccncn1)c1cc(Cl)c(O[C@H]2CCC[C@@H]2c2ccn[nH]2)cc1F [Example 150, 5-Chloro-2-fluoro-4-{[(1S,2R)-2-(1H-pyrazol-5-yl)cyclopentyl]oxy}-N-(pyrimidin-4-yl)benzenesulfonamide]
[2]
  IC50: 21 nM
[3]
  Ratio of improving pain score (%): C (“C” when the rate was 0 to 30%)

## Cn1nccc1[C@H]1CCC[C@@H]1Oc1ccc(S(=O)(=O)Nc2ccnc(F)n2)c(F)c1 (relative stereo) [Example 114, 2-Fluoro-N-(2-fluoropyrimidin-4-yl)-4-{[(1S*,2R*)-2-(1-methyl-1H-pyrazol-5-yl)cyclopentyl]oxy}benzenesulfonamide]
[2]
  IC50: 78 nM
[3]
  Ratio of improving pain score (%): B (“B” when the rate was 31 to 60%)

## CCn1nccc1[C@H]1CCC[C@@H]1Oc1ccc(S(=O)(=O)Nc2ccncn2)c(F)c1F (relative stereo) [Example 38, 4-{[(1S*,2R*)-2-(1-Ethyl-1H-pyrazol-5-yl)cyclopentyl]oxy}-2,3-difluoro-N-(pyrimidin-4-yl)benzenesulfonamide]
[2]
  IC50: 240 nM
[3]
  Ratio of improving pain score (%): A (“A” when the rate was 61 to 100%)

## Cc1c(O[C@H]2CCCC[C@@H]2c2ccnn2C)ccc(S(=O)(=O)Nc2ccncn2)c1F (relative stereo) [Example 66, 2-Fluoro-3-methyl-4-{[(1S*,2R*)-2-(1-methyl-1H-pyrazol-5-yl)cyclohexyl]oxy}-N-(pyrimidin-4-yl)benzenesulfonamide]
[2]
  IC50: 17 nM
[3]
  Ratio of improving pain score (%): A (“A” when the rate was 61 to 100%)

## Cn1nccc1[C@H]1CCCCC[C@@H]1Oc1ccc(S(=O)(=O)Nc2ccncn2)cc1C#N (relative stereo) [Example 55, 3-Cyano-4-{[(1S*,2R*)-2-(1-methyl-1H-pyrazol-5-yl)cycloheptyl]oxy}-N-(pyrimidin-4-yl)benzenesulfonamide]
[2]
  IC50: 39 nM
[3]
  Ratio of improving pain score (%): C (“C” when the rate was 0 to 30%)

## Cn1nccc1[C@H]1CCC[C@@H]1Oc1cc(F)c(S(=O)(=O)Nc2nncs2)cc1Cl (relative stereo) [Example 87, 5-Chloro-2-fluoro-4-{[(1S*,2R*)-2-(1-methyl-1H-pyrazol-5-yl)cyclopentyl]oxy}-N-(1,3,4-thiadiazol-2-yl)benzenesulfonamide]
[2]
  IC50: 280 nM
[3]
  Ratio of improving pain score (%): B (“B” when the rate was 31 to 60%)

## O=S(=O)(Nc1ccncn1)c1cc(F)c(O[C@H]2CC(F)(F)CC[C@@H]2c2cn[nH]c2)cc1F (relative stereo) [Example 103, 4-{[(1S*,2R*)-5,5-Difluoro-2-(1H-pyrazol-4-yl)cyclohexyl]oxy}-2,5-difluoro-N-(pyrimidin-4-yl)benzenesulfonamide]
[2]
  IC50: 320 nM
[3]
  Ratio of improving pain score (%): B (“B” when the rate was 31 to 60%)

## Cn1nccc1[C@H]1CCCC[C@@H]1Oc1cc(F)c(S(=O)(=O)Nc2nncs2)cc1Cl (relative stereo) [Example 86, 5-Chloro-2-fluoro-4-{[(1S*,2R*)-2-(1-methyl-1H-pyrazol-5-yl)cyclohexyl]oxy}-N-(1,3,4-thiadiazol-2-yl)benzenesulfonamide]
[2]
  IC50: 36 nM
[3]
  Ratio of improving pain score (%): A (“A” when the rate was 61 to 100%)

## Cn1nccc1[C@H]1CC(F)(F)C[C@@H]1Oc1cc(F)c(S(=O)(=O)Nc2ccncn2)cc1F (relative stereo) [Example 107, 4-{[(1S*,2R*)-4,4-Difluoro-2-(1-methyl-1H-pyrazol-5-yl)cyclopentyl]oxy}-2,5-difluoro-N-(pyrimidin-4-yl)benzenesulfonamide]
[2]
  IC50: 42 nM
[3]
  Ratio of improving pain score (%): B (“B” when the rate was 31 to 60%)

## Cn1nccc1[C@H]1CCC(F)(F)C[C@@H]1Oc1cc(F)c(S(=O)(=O)Nc2nncs2)cc1Cl (relative stereo) [Example 134, 5-Chloro-4-{[(1S*,2R*)-5,5-difluoro-2-(1-methyl-1H-pyrazol-5-yl)cyclohexyl]oxy}-2-fluoro-N-(1,3,4-thiadiazol-2-yl)benzenesulfonamide]
[2]
  IC50: 34 nM
[3]
  Ratio of improving pain score (%): B (“B” when the rate was 31 to 60%)

## Cn1nccc1[C@H]1C[C@@H](OCc2ccccc2)C[C@@H]1Oc1cc(F)c(S(=O)(=O)Nc2ccncn2)cc1F (relative stereo) [Example 97, 4-{[(1S*,2R*,4R*)-4-(Benzyloxy)-2-(1-methyl-1H-pyrazol-5-yl)cyclopentyl]oxy}-2,5-difluoro-N-(pyrimidin-4-yl)benzenesulfonamide]
[2]
  IC50: 34 nM
[3]
  Ratio of improving pain score (%): C (“C” when the rate was 0 to 30%)

## CCn1nccc1[C@H]1CCC[C@@H]1Oc1cc(F)c(S(=O)(=O)Nc2ccncn2)cc1F (relative stereo) [Example 37, 4-{[(1S*,2R*)-2-(1-Ethyl-1H-pyrazol-5-yl)cyclopentyl]oxy}-2,5-difluoro-N-(pyrimidin-4-yl)benzenesulfonamide]
[2]
  IC50: 210 nM
[3]
  Ratio of improving pain score (%): C (“C” when the rate was 0 to 30%)
